Laboratory results published in ChEMBL document CHEMBL3792283, “Biphenyl-4-yl-acrylohydroxamic acids: Identification of a novel indolyl-substituted HDAC inhibitor with antitumor activity” (Eur J Med Chem, 2016).
Active and inactive are the calls of the source. The rule behind the calls is not given here.

What was measured:
[1] = Antiproliferative activity against human H460 cells assessed as reduction in cell number after 72 hrs by cell counter analysis; type: functional, cell-based; settings: NCI-H460, 72 h
[2] = Antiproliferative activity human HCT116 cells assessed as reduction in cell number after 72 hrs by cell counter analysis; type: functional, cell-based; settings: HCT-116, 72 h
[3] = Antiproliferative activity against human IGROV1 cells assessed as reduction in cell number after 72 hrs by cell counter analysis; type: functional, cell-based; settings: IGROV-1, 72 h
HT-29 [4] = assay: Antiproliferative activity against human HT-29 cells assessed as reduction in cell number after 72 hrs by cell counter analysis; type: functional, cell-based; settings: HT-29, 72 h
HT-29 [5] = assay: Antiproliferative activity against mitoxantrone resistant human HT-29 cells assessed as reduction in cell number after 72 hrs by cell counter analysis; type: functional, cell-based; settings: HT-29, 72 h
animal or person = type: functional; settings: Homo sapiens, HCT-116, po, read-out: TGI
Description: Antitumor activity against human HCT116 cells xenografted in athymic Swiss nude mouse assessed as tumor growth inhibition at 175 mg/kg, po for 5 days a week for 4 weeks relative to control

IGROV-1 [6] = assay: Induction of apoptosis in human IGROV1 cells at 1 uM after 72 hrs by TUNEL assay (reference value: 3%); type: functional
IGROV-1 [7] = assay: Induction of apoptosis in human IGROV1 cells at 0.3 uM after 72 hrs by TUNEL assay (reference value: 3%); type: functional
LoVo = assay: Antiproliferative activity against human LoVo cells assessed as reduction in cell number after 72 hrs by cell counter analysis; type: functional, cell-based
[8] = Cell cycle arrest in human IGROV1 cells assessed as accumulation at G1 phase at 0.3 to 1 uM after 72 hrs by propidium iodide staining based flow cytometry; type: functional; settings: IGROV-1
[9] = Antiproliferative activity against human LoVo/DX cells assessed as reduction in cell number after 72 hrs by cell counter analysis; type: functional, cell-based
Histone deacetylase 2 = Histone deacetylase 2 (Homo sapiens, UniProt Q92769); assay: Inhibition of human recombinant HDAC2 using Fluor de Lys Green as substrate incubated for 30 mins by fluorescence assay
Histone deacetylase 2, sequence (Q92769 whole entry): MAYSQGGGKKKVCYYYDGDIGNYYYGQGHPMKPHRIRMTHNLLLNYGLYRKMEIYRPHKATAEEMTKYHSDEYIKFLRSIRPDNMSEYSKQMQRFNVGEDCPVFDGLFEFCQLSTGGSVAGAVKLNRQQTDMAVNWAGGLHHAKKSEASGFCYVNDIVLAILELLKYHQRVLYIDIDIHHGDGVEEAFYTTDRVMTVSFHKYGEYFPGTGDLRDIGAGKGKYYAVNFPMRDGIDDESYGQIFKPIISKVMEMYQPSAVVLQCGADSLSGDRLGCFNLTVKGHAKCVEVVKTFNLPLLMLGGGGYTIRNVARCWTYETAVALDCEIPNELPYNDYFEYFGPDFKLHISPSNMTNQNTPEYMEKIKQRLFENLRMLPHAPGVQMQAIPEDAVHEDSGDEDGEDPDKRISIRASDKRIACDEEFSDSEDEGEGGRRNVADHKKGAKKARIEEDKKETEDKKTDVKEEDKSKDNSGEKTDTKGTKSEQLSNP

Histone deacetylase [10] = assay: Inhibition of HDAC in human HeLa cells using BOC-Ac-Lys-AMC as substrate incubated for 4 hrs by fluorescence assay; type: cell-based
Histone deacetylase [11] = assay: Inhibition of HDAC in human HeLa nuclear extract using BOC-Ac-Lys-AMC as substrate incubated for 90 mins by fluorescence assay; type: protein assay

Compound | IC50 [1] [µM] | IC50 [2] [µM] | IC50 [3] [µM] | IC50 (HT-29 [4]) [µM] | IC50 (HT-29 [5]) [µM] | inhibition in vivo at 175 mg/kg (animal or person) [%] | Activity (IGROV-1 [6]) [%] | Activity (IGROV-1 [7]) [%] | IC50 (LoVo) [µM] | Activity [8] | IC50 [9] [µM] | IC50 (Histone deacetylase 2) [µM] | IC50 (Histone deacetylase [10]) [µM] | IC50 (Histone deacetylase [11]) [µM]
COc1ccc(-c2ccc(/C=C/C(=O)NO)cc2)cc1 | 3.7 | 0.26 | 0.75 | 1.58 | 1.73 |  |  |  |  |  |  |  |  | 
Cc1[nH]c2ccccc2c1/C=C/c1ccccc1-c1ccc(/C=C/C(=O)NO)cc1 | 1.41 | 0.27 | 0.35 | 1.37 | 2.44 | 68 | 79 | 34 | 6.57 | Active | 4.62 |  |  | 
O=C(CCCCCCC(=O)Nc1ccccc1)NO [VORINOSTAT] |  | 0.31 | 2.2 |  |  |  |  |  |  |  |  |  |  | 
CC(C)=C(c1ccccc1)c1ccc(/C=C/C(=O)NO)cc1 | 5.5 | 2 | 2.5 | 4.12 |  |  |  |  | 2.79 |  |  | 11.8 | 2.5 | 2.6
